How the values were obtained:
Assay type in all cases: in vivo, Sprague-Dawley rats
TRPM7 = TRPM7 expression in SNI model, Western blot; details: 4 weeks after nerve injury
Protocol: FIG. 5C is a diagram showing results of analyzing the expression of TRMP7 in an SNI animal model by Western blot.
To determine through which signaling pathway YJ102 inhibited a neuroinflammatory response, there was analyzed increased expression and activation of histone demethylase JMJD3 and expression changes of factors associated with JAK/STAT3 pathway, mTOR pathway, and TRPM7-mediated pathway, which were known as important regulatory mechanisms and epigenetic regulators mediating the neuroinflammatory response, in the tissues of the SNI animal model 4 weeks after nerve injury.

[1] = system: urinary disturbances caused by spinal cord injury (bladder function); assay: Urinary function (residual urine volume, UBFS, bladder size and weight) in SCI model; details: 5 mg/kg i.p.
Protocol: To be used as a central nerve injury animal model, a traumatic spinal cord injury (SCI) model was prepared (FIG. 1A). Specifically, 230 to 250 g of male adult Sprague-Dawley rats were anesthetized by intraperitoneal injection of chloral hydrate (500 mg/kg), and then the back and neck regions were shaved, and the spinal cord under the back and neck regions was exposed without damaging the dura mater, and a laminectomy was performed at T9 to T10 levels. To stabilize the spine, the spinous processes of T8 and T11 were fixed, and the spine was damaged by free-falling a 10 g weight from a height of 25 mm using an NYU impactor onto the back surface of the exposed spinal cord and then the rats were left in a temperature and humidity-controlled chamber overnight while covering the muscles and skin. After surgery, the rats were subcutaneously injected with a supplement solution (5 ml, lactated ringer) and injected with antibiotics (gentamicin, 5 mg/kg, intramuscular injection) once daily for 5 days. The body weight, remaining food, and the weight of water were confirmed and recorded for all animals, and the bladder was emptied twice daily by passive bladder massage until reflex micturition was established. At this time, a Sham group was a group that was subjected to only laminectomy without damage.
In order to confirm the effect of YJ102 (Chemical Formula 1), a compound of the present disclosure, on urinary disturbances caused by spinal cord injury, immediately after preparing the traumatic spinal cord injury (SCI) model (FIG. 1A) prepared in Example 1 above, YJ102 was dissolved in DMSO, methyl pyrrolidinone, and water (1:1.5:1) and administered intraperitoneally at 5 mg/kg, and then intraperitoneally administered at 24-hour intervals for 7 days from the next day. Thereafter, the effect of improving bladder functions was analyzed through a residual urine volume test and a urinary bladder function score (UBFS). […] Specifically, in order to determine the amount of urine remaining in the bladder after spinal cord injury, bladder extrusion was performed twice a day by applying pressure to the central bottom portion of the lower abdomen using the index and middle fingers to empty the bladder, and the expelled urine was collected in a catheter and its volume was recorded. In addition, the UBFS was assessed daily using a 0-4 point UBFS (0=total loss of function (manual bladder extrusion 3 times a day, bloody urine), 1=partial restoration of UBF (manual extrusion 2 times a day, bloody urine), 2=partial restoration of UBF (partial/complete release of sphincter spasm, manual extrusion once a day, persistently bloody urine), 3=high restoration (manual extrusion once a day, no bloody urine), and 4=normal UBF) as in the reference (Zeng et al., Spinal Cord (2017) 55:834-839).

bladder wall = assay: Bladder hypertrophy (bladder wall thickness, H&E) in SCI model; details: 5 mg/kg i.p., day 1 after SCI
ZO-1 = assay: Tight junction protein ZO-1 in bladder of SCI model, Western blot; details: SCI day 1, Western blot
Occludin = assay: Tight junction protein Occludin in bladder of SCI model, Western blot and immunofluorescence
NGF / proNGF = assay: NGF mRNA and proNGF in bladder tissue of SCI model, RT-PCR and Western blot; details: bladder tissue after SCI
Protocol: In order to confirm the effect of YJ102 (Chemical Formula 1), a compound of the present disclosure, on urinary disturbances caused by spinal cord injury, immediately after preparing the traumatic spinal cord injury (SCI) model (FIG. 1A) prepared in Example 1 above, YJ102 was dissolved in DMSO, methyl pyrrolidinone, and water (1:1.5:1) and administered intraperitoneally at 5 mg/kg, and then intraperitoneally administered at 24-hour intervals for 7 days from the next day. Thereafter, the effect of improving bladder functions was analyzed through a residual urine volume test and a urinary bladder function score (UBFS). At this time, a Vehicle group was administered with the same amount of a solution of DMSO, methyl pyrrolidinone, and water. Specifically, in order to determine the amount of urine remaining in the bladder after spinal cord injury, bladder extrusion was performed twice a day by applying pressure to the central bottom portion of the lower abdomen using the index and middle fingers to empty the bladder, and the expelled urine was collected in a catheter and its volume was recorded. […]

[2] = system: inflammatory cytokines and chemokines in bladder tissue; assay: Inflammatory factor expression in bladder of SCI model, RT-PCR and Western blot; details: bladder after SCI
Protocol: In order to confirm the effect of YJ102 (Chemical Formula 1), a compound of the present disclosure, on urinary disturbances caused by spinal cord injury, immediately after preparing the traumatic spinal cord injury (SCI) model (FIG. 1A) prepared in Example 1 above, YJ102 was dissolved in DMSO, methyl pyrrolidinone, and water (1:1.5:1) and administered intraperitoneally at 5 mg/kg, and then intraperitoneally administered at 24-hour intervals for 7 days from the next day. Thereafter, the effect of improving bladder functions was analyzed through a residual urine volume test and a urinary bladder function score (UBFS). At this time, a Vehicle group was administered with the same amount of a solution of DMSO, methyl pyrrolidinone, and water. Specifically, in order to determine the amount of urine remaining in the bladder after spinal cord injury, bladder extrusion was performed twice a day by applying pressure to the central bottom portion of the lower abdomen using the index and middle fingers to empty the bladder, and the expelled urine was collected in a catheter and its volume was recorded. In addition, the UBFS was assessed daily using a 0-4 point UBFS (0=total loss of function (manual bladder extrusion 3 times a day, bloody urine), 1=partial restoration of UBF (manual extrusion 2 times a day, bloody urine), 2=partial restoration of UBF (partial/complete release of sphincter spasm, manual extrusion once a day, persistently bloody urine), 3=high restoration (manual extrusion once a day, no bloody urine), and 4=normal UBF) as in the reference (Zeng et al., Spinal Cord (2017) 55:834-839).
To confirm the effect of YJ102 on the expression of inflammatory factors in the bladder after spinal cord injury, the expression of inflammatory cytokines and chemokines, COX-2, iNOS, IL-6, IL-1β, MIP-1α, MIP-1β, MIP-2a, and Gro-α in bladder tissue was confirmed by RT-PCR analysis and Western blot analysis using the primers in Table 2 above. In addition, even in the Raw 264.7 cell line, the expression was verified by RT-PCR analysis.

Compound: CCc1ccc(N(C(=O)COC)c2nc3cc(Cl)ccc3o2)cc1 [YJ102]
- expression of TRPM7 (TRPM7): inhibited the expression
- bladder size [1]: significantly reduced
- bladder weight [1]: significantly reduced
- residual urine volume ([1]; vs Veh, from the first day of administration): significantly reduced
- bladder function restoration analysis using the UBFS (printed as residual urine volume) ([1]; vs Vehicle, day 3 and day 7 after SCI): significantly increased
- thickness of lamina propria (bladder wall): significantly reduced
- thickness of muscle layer (bladder wall): significantly reduced
- thickness of urothelium layer (bladder wall): significantly reduced
- reduction in amount of ZO-1 (ZO-1): significantly inhibited
- reduction in amount of Occludin (Occludin; SCI day 1, Western blot): significantly inhibited
- reduction in Occludin in the urothelium (Occludin; after SCI, immunofluorescence): inhibited
- NGF mRNA expression (NGF / proNGF): significantly inhibited
- proNGF production (NGF / proNGF): significantly inhibited
- expression of COX-2 [2]: significantly reduced
- expression of Gro-α [2]: significantly reduced
- expression of IL-1β [2]: significantly reduced
- expression of IL-6 [2]: significantly reduced
- expression of MIP-1B [2]: significantly reduced
- expression of MIP-1 a [2]: significantly reduced
- expression of MIP-2a [2]: significantly reduced
- expression of iNOS [2]: significantly reduced

— US20260335293A1, “USE OF NOVEL COMPOUND FOR TREATING INTRACTABLE DISEASES” (YJ CERAPEUTICS INC., priority 2023, published 2026)
